Reference: patent publication US8334316B2, “Substituted organosulfur compounds and methods of using thereof” (ACEA Biosciences, Inc., priority 2004, dated 2012)
“And” between values parts separate entries of the source, which are not always exact repeats. Equal values may be shown once. Marks after values point to notes of the source that are not given here.

How the values were obtained:
mouse sarcoma S180 = assay: In vivo antitumor efficacy, mouse sarcoma S180 model (subcutaneously transplanted), Example 1
mouse Lewis lung cancer = assay: In vivo antitumor efficacy, mouse Lewis lung cancer model, Example 2 (DBTS, CTX, Taxol reference)
[1] = test system: Bcap-37 human breast cancer; assay: Bcap-37 human breast cancer xenograft in nude mice, dosing from day 7 when tumors palpable (Example 5); type: in vivo; conditions: for Tumor Inhibition Rate C − T/C %: based on tumor weight; for Tumor Volume (g) X ± SD: end of study
Protocol: Only female mice were used in this study. […] The high, middle and low doses of ACEA100108 were 50, […] and 8 mg/kg/d, respectively.
Preparation and Administration of Test Compounds. […] Seven days after the tumor transplantation, the transplanted tumors grew to size sufficiently large that could be felt by hands when one touched the animal. […] The high, middle and low dose of ACEA100108 was 50, 20 and 8 mg/kg, respectively.
About seven days after the transplantation, tumors in the mice grew sufficiently large so that tumor could be felt by hands when one touched the animals.
For the human breast cancer xenograft model, all used materials, including animal food, animal cage, supporting materials and apparatus contacted by animals, were high-pressure sterilized. Nude mice were maintained in laminar flow shelves under SPF condition. After tumor transplantation, mouse weight and tumor size in each compound dosage group were dynamically monitored and recorded. The tumors size was determined by measuring the major axis (a) and minor axis (b) of the tumor, and tumor volume was calculated according to the equation (3) in Example 3.

[2] = test system: A549 human lung cancer cells; assay: Cell-cycle distribution by propidium iodide flow cytometry in A549 cells; type: cell-based; conditions: 24 hrs, vs DMSO
Protocol: Another in vitro assay may be used to evaluate the effect of compounds in arresting the cell cycle progression. More specifically, a test compound is added to cells of certain cell lines in a concentration-dependent manner. After cells are incubated for certain specific length of time, cells are stained using propidium iodide and are used for flow cytometric assessment. The cell populations of sub-G0/G1, G0/G1, S and G2/M phases are determined. All above in vitro assays are cell-based, single-time point (or multiple-time points using multiple plates) end-point assays.
Microtubules are extremely important in the process of mitosis, during which the duplicated chromosomes of a cell are separated into two identical sets before cleavage of the cell into two daughter cells. […] As consequence, cells will be arrested at G2/M phase.
In briefly, A549 cells were seeded at a density of 500,000 cells in 60 mm tissue culture dishes. Approximately 18 hours later the cells were treated with the indicated concentrations of anti-mitotic compounds and allowed to further incubate for 24 hours. The cells were washed in PBS, trypsinized, counted and fixed in ice-cold 70% methanol and stored at 4° C. The cells were washed with PBS, stained with propidium iodide and kept on ice until flow cytometry analysis.

[3] = test system: ao10/17 human ovarian cancer; assay: ao10/17 human ovarian cancer xenograft in nude mice (Example 4); type: in vivo
[4] = 20 mg/kg iv x7 qd, 0 d (beginning)

## c1ccc(CSSSCc2ccccc2)cc1 [DBTS, Dibenzyl trisulfide]
Mouse sarcoma S180; 12.5 mg/kg/d iv x7 qd
  Animal weight (g) end: 24.5 g
Mouse sarcoma S180; 12.5 mg/kg/d iv x7 qd, vs 10% solvent control
  Inhibition rate (%): 30.46%
Mouse sarcoma S180; 12.5 mg/kg/d iv x7 qd, vs normal saline control
  Inhibition rate (%): 48.69%
Mouse sarcoma S180; 25 mg/kg/d iv x7 qd, vs 10% solvent control
  Inhibition rate (%): 38.58%
Mouse sarcoma S180; 25 mg/kg/d iv x7 qd, vs normal saline control
  Inhibition rate (%): 54.68%
Mouse sarcoma S180; 50 mg/kg/d iv x7 qd, vs 10% solvent control
  Inhibition rate (%): 50.25%
Mouse sarcoma S180; 50 mg/kg/d iv x7 qd, vs normal saline control
  Inhibition rate (%): 63.30% and 65%
Mouse Lewis lung cancer; 12.5 mg/kg/d iv x10 qd
  Tumor weight: 1.59 ± 0.16 g
Mouse Lewis lung cancer; 12.5 mg/kg/d iv x10 qd, vs 5% solvent control
  tumor inhibition rate %: 35.10%
Mouse Lewis lung cancer; 12.5 mg/kg/d iv x10 qd, vs normal saline control
  tumor inhibition rate %: 43.10% and 43.01%
Mouse Lewis lung cancer; 25 mg/kg/d iv x10 qd
  Tumor weight: 1.35 ± 0.10 g
Mouse Lewis lung cancer; 25 mg/kg/d iv x10 qd, vs 5% solvent control
  tumor inhibition rate %: 46.94%
Mouse Lewis lung cancer; 25 mg/kg/d iv x10 qd, vs normal saline control
  tumor inhibition rate %: 51.61%
Mouse Lewis lung cancer; 50 mg/kg/d iv x10 qd
  Tumor weight: 0.955 ± 0.20 g
Mouse Lewis lung cancer; 50 mg/kg/d iv x10 qd, vs 5% solvent control
  tumor inhibition rate %: 61.02%
Mouse Lewis lung cancer; 50 mg/kg/d iv x10 qd, vs normal saline control
  tumor inhibition rate %: 65.77% and 65%

## Fc1ccc(CSSSCc2ccc(F)cc2)cc1 [ACEA100108, Di(p-fluorobenzyl)trisulfide]
[1]; 8 mg/kg iv x7 qd, 0 d (beginning)
  Body weight of mice: 18.5 g and 18.5 ± 1 g
[1]; 8 mg/kg iv x7 qd, 7 d
  Body weight of mice: 19.8 ± 1.5 g
  Mice with palpable tumor / total mice: 6/6††
[1]; 8 mg/kg iv x7 qd, 7 d after transplantation (start of dosing)
  Tumor volume (cm^3): 0.01 cm^3
[1]; 8 mg/kg iv x7 qd, 14 d
  Body weight of mice: 21.7 ± 1.4 g
  Tumor volume (cm^3): 0.107 ± 0.02 cm^3
[1]; 8 mg/kg iv x7 qd, 21 d
  Body weight of mice: 23.2 ± 1.5 g
  Tumor volume (cm^3): 0.27 ± 0.03 cm^3
[1]; 8 mg/kg iv x7 qd, 24 d
  Tumor volume (cm^3): 0.962 ± 0.23 cm^3
[1]; 8 mg/kg iv x7 qd, 24 d (end)
  Body weight of mice: 24.0 g and 24 ± 1.4 g
[1]; 8 mg/kg/d iv x7 qd
  Tumor Volume Inhibition T/C %: 53.38%
  Tumor weight: 1.12 ± 0.18 g
  Tumor Inhibition Rate C − T/C %: 28.21%
  Tumor Volume (g) X ± SD: 0.962 ± 0.23*** cm^3
[1]; [4]
  Body weight of mice: 18.8 ± 1.2 g
[1]; 20 mg/kg iv x7 qd, 7 d
  Body weight of mice: 19.5 ± 1 g
  Mice with palpable tumor / total mice: 6/6††
[1]; 20 mg/kg iv x7 qd, 7 d after transplantation (start of dosing)
  Tumor volume (cm^3): 0.01 cm^3
[1]; 20 mg/kg iv x7 qd, 14 d
  Body weight of mice: 21.2 ± 1.5 g
  Tumor volume (cm^3): 0.087 ± 0.01 cm^3
[1]; 20 mg/kg iv x7 qd, 21 d
  Body weight of mice: 22.3 ± 1.6 g
  Tumor volume (cm^3): 0.23 ± 0.04 cm^3
[1]; 20 mg/kg iv x7 qd, 24 d
  Tumor volume (cm^3): 0.74 ± 0.18 cm^3
[1]; 20 mg/kg iv x7 qd, 24 d (end)
  Body weight of mice: 24.3 g and 24.3 ± 0.8 g
[1]; 20 mg/kg/d iv x7 qd
  Tumor Volume Inhibition T/C %: 41.06%
  Tumor weight: 0.822 ± 0.12 g
  Tumor Inhibition Rate C − T/C %: 47.31%
  Tumor Volume (g) X ± SD: 0.740 ± 0.18*** cm^3
[1]; 50 mg/kg iv x7 qd, 0 d (beginning)
  Body weight of mice: 18.2 g and 18.2 ± 1.2 g
[1]; 50 mg/kg iv x7 qd, 7 d
  Body weight of mice: 19.3 ± 1 g
  Mice with palpable tumor / total mice: 6/6††
[1]; 50 mg/kg iv x7 qd, 7 d after transplantation (start of dosing)
  Tumor volume (cm^3): 0.01 cm^3
[1]; 50 mg/kg iv x7 qd, 14 d
  Body weight of mice: 20.7 ± 1.2 g
  Tumor volume (cm^3): 0.049 ± 0.02 cm^3
[1]; 50 mg/kg iv x7 qd, 21 d
  Body weight of mice: 21.8 ± 1.5 g
  Tumor volume (cm^3): 0.169 ± 0.03 cm^3
[1]; 50 mg/kg iv x7 qd, 24 d
  Tumor volume (cm^3): 0.485 ± 0.06 cm^3
[1]; 50 mg/kg iv x7 qd, 24 d (end)
  Body weight of mice: 22.8 g and 22.8 ± 1.5 g
[1]; 50 mg/kg iv x10 qd, 0 d (beginning)
  Body weight of mice: 18.8 g and 18.8 ± 1 g
[1]; 50 mg/kg iv x10 qd, 7 d
  Body weight of mice: 19.7 ± 1 g
  Mice with palpable tumor / total mice: 6/6††
[1]; 50 mg/kg iv x10 qd, 7 d after transplantation (start of dosing)
  Tumor volume (cm^3): 0.01 cm^3
[1]; 50 mg/kg iv x10 qd, 14 d
  Body weight of mice: 20.3 ± 1.4 g
  Tumor volume (cm^3): 0.048 ± 0.03 cm^3
[1]; 50 mg/kg iv x10 qd, 21 d
  Body weight of mice: 21.5 ± 1.8 g
  Tumor volume (cm^3): 0.114 ± 0.02 cm^3
[1]; 50 mg/kg iv x10 qd, 24 d
  Tumor volume (cm^3): 0.28 ± 0.04 cm^3
[1]; 50 mg/kg iv x10 qd, 24 d (end)
  Body weight of mice: 21.2 g and 21.2 ± 1.2 g
[1]; 50 mg/kg/d iv x7 qd
  Tumor Volume Inhibition T/C %: 26.91%
  Tumor weight: 0.745 ± 0.10 g
  Tumor Volume (g) X ± SD: 0.485 ± 0.06*** cm^3
[1]; 50 mg/kg/d iv x10 qd
  Tumor Volume Inhibition T/C %: 15.53%
  Tumor weight: 0.672 ± 0.10 g
  Tumor Inhibition Rate C − T/C %: 56.92%
  Tumor Volume (g) X ± SD: 0.280 ± 0.04*** cm^3
[2]; 25 uM
  Cell population at G2/M phase: increased significantly
[3]; [4]
  Body weight of mice: 17.2 g and 17.2 ± 1.2 g

## CC(=O)O[C@H]1C(=O)[C@@]2(C)[C@H]([C@H](OC(=O)c3ccccc3)[C@]3(O)C[C@H](OC(=O)[C@H](O)[C@@H](NC(=O)c4ccccc4)c4ccccc4)C(C)=C1C3(C)C)[C@]1(OC(C)=O)CO[C@@H]1C[C@@H]2O [Taxol, paclitaxel, reference compound]
[1]; 10 mg/kg iv x7 qd, 0 d (beginning)
  Body weight of mice: 18.8 g and 18.8 ± 1 g
[1]; 10 mg/kg iv x7 qd, 7 d
  Body weight of mice: 20.5 ± 1 g
  Mice with palpable tumor / total mice: 6/6††
[1]; 10 mg/kg iv x7 qd, 7 d after transplantation (start of dosing)
  Tumor volume (cm^3): 0.01 cm^3
[1]; 10 mg/kg iv x7 qd, 14 d
  Tumor volume (cm^3): 0.103 ± 0.02 cm^3
[1]; 10 mg/kg iv x7 qd, 21 d
  Tumor volume (cm^3): 0.283 ± 0.05 cm^3
[1]; 10 mg/kg iv x7 qd, 24 d
  Tumor volume (cm^3): 0.799 ± 0.23 cm^3
[1]; 10 mg/kg/d iv x7 qd
  Tumor Volume Inhibition T/C %: 44.33%
  Tumor weight: 0.92 ± 0.07 g
  Tumor Inhibition Rate C − T/C %: 41.03%
[2]; 7.8 nM
  Cell population at G2/M phase: increased significantly
[3]; 10 mg/kg iv x7 qd, 7 D after transplantation
  Mice with palpable tumor / total mice: 2/6
Mouse Lewis lung cancer; 7.5 mg/kg/d iv x5 qd
  Tumor weight: 1.98 ± 0.14 g
Mouse Lewis lung cancer; 7.5 mg/kg/d iv x5 qd, vs normal saline control
  tumor inhibition rate %: 30.28%
Mouse Lewis lung cancer; 10 mg/kg/d iv x5 qd
  Tumor weight: 1.79 ± 0.09 g
Mouse Lewis lung cancer; 10 mg/kg/d iv x5 qd, vs normal saline control
  tumor inhibition rate %: 36.97%
Mouse Lewis lung cancer; 15 mg/kg/d iv x5 qd
  Tumor weight: 1.45 ± 0.14 g
Mouse Lewis lung cancer; 15 mg/kg/d iv x5 qd, vs normal saline control
  tumor inhibition rate %: 48.94%
